Source: PubChem BioAssay AID1996
Values after ≈ are worked out from the molar mass of the structure shown.

Settings: buffer; pH 7.4; 200.0 µM

Row | Compound | solubility kinetic
1 | CC(=O)Oc1ccccc1C(=O)N(C1CCCCC1)C1CCCCC1 | 44.5 µg/mL (≈ 130 µM)
2 | CC(C)(C)C(=O)Nc1cccc(-c2ncon2)c1 | > 36.8 µg/mL
3 | CCOc1ccccc1C(=O)OCC(=O)Nc1cccc(S(=O)(=O)N2CCCC2)c1 | 19.2 µg/mL (≈ 44.4 µM)
4 | CC1CCCCN1C(=S)NC(=O)c1ccco1 (configuration not stated) | > 37.8 µg/mL
5 | C[C@@H](NC(=O)[C@@H]1Cc2ccccc2CN1)C(=O)NC1CCCC1 | > 47.3 µg/mL
6 | COc1ccc(C(=O)N2CCCC(C(=O)O)C2)c2ccccc12 (configuration not stated) | > 47 µg/mL
7 | CCN(C(=O)CSc1ncccc1C(=O)O)C1CCCCC1 | > 48.4 µg/mL
8 | Cc1ccnc(NC(=O)CNC(=O)c2ccccc2Br)c1 | 48.5 µg/mL (≈ 139 µM)
9 | Cc1ccc(S(=O)(=O)NCCOc2nc(N(C)C)nc(N(C)C)n2)cc1 | 52.8 µg/mL (≈ 139 µM)
10 | O=C(Cn1ccc([N+](=O)[O-])n1)Nc1nc2ccccc2s1 | > 45.5 µg/mL
11 | S=C(/N=c1/sccn1Cc1ccccc1)NC1CC1 | 5.4 µg/mL (≈ 18.7 µM)
12 | O=C(Cn1c(=O)oc2ccccc21)Nc1ccccc1C(F)(F)F | 10 µg/mL (≈ 29.7 µM)
13 | CC(C)(C)c1ccc(/C=C2\SC(=O)N=C2N)cc1 | < 0.3 µg/mL
14 | O=C(N[C@@H](Cc1ccccc1)C(=O)OCc1ccccc1)c1ccco1 | 32.4 µg/mL (≈ 92.7 µM)
15 | CC1CC(NC(=O)/C(C#N)=C/c2ccc[nH]2)CC(C)(C)C1 (configuration not stated) | < 0.2 µg/mL
16 | CN(C)c1ccc(/C=C2\C(=O)NC(=O)N(CCc3ccc(F)cc3)C2=O)cc1 | 11.2 µg/mL (≈ 29.4 µM)
17 | O=C(/C=C/c1ccco1)Nc1ccc2c(c1)OCCO2 | > 40.7 µg/mL
18 | COc1ccc(N2CCN(C(=O)c3ccccc3F)CC2)c([N+](=O)[O-])c1 | 40.7 µg/mL (≈ 113 µM)
19 | Cc1ccc(C(=O)OCC(=O)NC2CCCCCC2)c(C)c1 | 4.6 µg/mL (≈ 15.2 µM)
20 | CCc1nnc(NC(=O)CS(=O)(=O)Cc2ccccc2)s1 | > 48.8 µg/mL
21 | O=C(NC(=S)NC1CCCCC1)c1ccc(F)cc1 | 2.1 µg/mL (≈ 7.49 µM)
22 | CC(C)(C)Nc1ncnc2sc(-c3ccccc3)cc12 | < 0.2 µg/mL
23 | CCOC(=O)c1c(C)nc2cc(C)cc(C)n12 | 32.4 µg/mL (≈ 139 µM)
24 | Cc1c([N+](=O)[O-])c(C(=O)NC2CCCCC2)nn1C | > 39.9 µg/mL

Row | Compound | solubility kinetic
25 | O=C(Nc1ccc(Cl)cc1Cl)c1ccc2ncsc2c1 | 0.4 µg/mL (≈ 1.24 µM)
26 | Cc1ccccc1NC(=O)/C(C#N)=C/c1ccc[nH]1 | 2.9 µg/mL (≈ 11.5 µM)
27 | O=C(COC(=O)/C=C/c1cccs1)Nc1ccc(Cl)cc1F | 3.7 µg/mL (≈ 10.9 µM)
28 | CCCN1CCC(NC(=O)Nc2cc(Cl)ccc2OC)CC1 | 47.6 µg/mL (≈ 146 µM)
29 | CC(=O)c1ccc(NC(=O)c2noc(C)c2[N+](=O)[O-])cc1 | 18.6 µg/mL (≈ 64.3 µM)
30 | Cc1cc(NC(=O)COc2c(C)cccc2C)no1 | 6.9 µg/mL (≈ 26.5 µM)
31 | CC(C)c1ccc2nc(SCC(=O)NCC3CCCO3)c(C#N)cc2c1 (configuration not stated) | 2.4 µg/mL (≈ 6.5 µM)
32 | COc1ccc(NC(=O)C2CCCN(c3cnccn3)C2)cc1 (configuration not stated) | > 46.9 µg/mL
33 | O=c1cc(-c2ccccc2)nc(Sc2ccc([N+](=O)[O-])cc2[N+](=O)[O-])[nH]1 | 3.3 µg/mL (≈ 8.91 µM)
34 | NC(=O)CSc1nccn1Cc1ccc(Cl)cc1 | > 42.3 µg/mL
35 | CC(=O)c1cccc(NC(=O)c2cc(=O)[nH]c3ccc(S(=O)(=O)N4CCOCC4)cc23)c1 | 8.5 µg/mL (≈ 18.7 µM)
36 | CC(C)(C)c1ccc(C(=O)NCCC(=O)N2CCCC2)cc1 | > 45.4 µg/mL
37 | O=C(Nc1nc2cc3c(cc2s1)OCO3)C1CCCCC1 | < 0.3 µg/mL
38 | COc1ccc(CCNC(=O)Cc2cccs2)cc1OC | > 45.8 µg/mL
39 | CC(=O)Nc1ccc(Cl)c(-c2nc3ncccc3o2)c1 | 41.5 µg/mL (≈ 144 µM)
40 | O=C(NC(=S)Nc1ccc2oc(=O)ccc2c1)c1ccccc1F | 1.4 µg/mL (≈ 4.09 µM)
41 | O=C(NC1CCCC1)c1cc(-c2ccc(F)cc2)on1 | 2.1 µg/mL (≈ 7.66 µM)
42 | CCC(C)(C)NC(=O)C(OC(=O)c1ccco1)c1ccccc1F (configuration not stated) | 22.1 µg/mL (≈ 66.3 µM)
43 | CN(C)NC(=S)NC1CC2CCC1C2 (configuration not stated) | > 32 µg/mL
44 | O=C(c1ccc(Cl)c(S(=O)(=O)N2CCOCC2)c1)N1CCc2ccccc2C1 | > 63.1 µg/mL
45 | O=C(O)CSc1ncccn1 | > 25.5 µg/mL
46 | O=C(NCc1ccc(Cl)cc1)c1ccc2ccccc2n1 | 3.4 µg/mL (≈ 11.5 µM)
47 | CCOCC(=O)N1CCN(Cc2ccc3c(c2)OCO3)CC1 | > 46 µg/mL
